Reference: US7253296B2, “Acylated aminopropanediols and analogues and therapeutic uses thereof” (Genfit, priority 2003, dated 2007)

Legend:
[1] = tested on: LDL; assay: Protection against LDL oxidation induced by copper (conjugated diene formation, OD 234 nm); format: biochemical; details: for intrinsic antioxidant properties (delay of copper-induced LDL oxidation): FIG. 2; for shift of the lag phase latency (conjugated diene formation): relative to control sample, FIG. 2a
Procedure: Oxidation of LDL is an important modification which plays a major role in the onset and development of atherosclerosis (Jurgens, Hoff et al. 1987). […] Unless otherwise indicated, all reagents were from Sigma (St Quentin, France).
LDL were prepared as described in Lebeau et al. (Lebeau, Furman et al. 2000). The solutions of the test compounds were prepared at 10^−2 M in ethanol and diluted in PBS so that the final concentration ranged from 0.1 to 100 μM with a total ethanol concentration of 1% (VN).
Before oxidation, EDTA was removed from the LDL preparation by dialysis. The oxidation reaction was then carried out at 30° C. by adding 100 μl of 16.6 μM CuSO4 to 800 μl of LDL (125 μg protein/ml) and 100 μl of a test compound solution. The formation of dienes, the species to be followed, was measured by the optical density at 234 nm in the samples treated with the compounds in the presence or absence of copper. Optical density at 234 nm was measured every 10 minutes for 8 hours on a thermostated spectrophotometer (Kontron Uvikon 930). The analyses were carried out in triplicate. A compound was considered to have antioxidant activity when it shifted the lag phase latency relative to the control sample. […] FIG. 2 presents an example of the results obtained with the inventive compounds.

[2] = target: T1, Gal4/hPPARα (Homo sapiens, UniProt Q07869); assay: Gal4/PPARα transactivation system in HepG2 cells (luciferase reporter); details: for induction factor (luminescent signal of treated cells divided by that of untreated cells): HepG2 cells, Gal4/PPARα, 24 h, FIG. 3
T1 sequence (Q07869 239-466 limits assumed): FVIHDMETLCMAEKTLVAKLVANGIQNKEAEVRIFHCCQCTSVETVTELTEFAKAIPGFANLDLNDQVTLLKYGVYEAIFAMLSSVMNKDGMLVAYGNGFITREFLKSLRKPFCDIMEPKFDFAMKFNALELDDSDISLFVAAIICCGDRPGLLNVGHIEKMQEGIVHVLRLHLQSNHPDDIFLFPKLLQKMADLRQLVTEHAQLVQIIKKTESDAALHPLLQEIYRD
Procedure: PPAR activation was tested in vitro in RK13 fibroblast cell lines or in a hematocyte line HepG2 by measuring the transcriptional activity of chimeras composed of the DNA binding domain of the yeast gal4 transcription factor and the ligand binding domain of the different PPARs.
HepG2 cells were from ECACC (Porton Down, UK) and were grown in DMEM medium supplemented with 10% (VN) fetal calf serum, 100 U/ml penicillin (Gibco, Paisley, UK) and 2 mM L-glutamine (Gibco, Paisley, UK). The culture medium was changed every two days. Cells were kept at 37° C. in a humidified 95% air/5% CO2 atmosphere.
The plasmids pG5TkpGL3, pRL-CMV, pGal4-hPPAR□, pGal4-hPPAR□ and pGal4-f have been described by Raspe et al. (Raspe, Madsen et al. 1999).
HepG2 cells were seeded in 24-well culture dishes at 5×10^4 cells/well and transfected for 2 hours with the reporter plasmid pG5TkpGL3 (50 ng/well), the expression vectors pGal4-f, pGal4-mPPARα, pGal4-hPPARα, pGal4-hPPARγ, pGal4-hPPARβ (100 ng/well) and the transfection efficiency control vector pRL-CMV (1 ng/well) according to the previously described protocol (Raspe, Madsen et al. 1999), then incubated for 36 hours with the test compounds. At the end of the experiment, the cells were lysed (Gibco, Paisley, UK) and luciferase activity was determined with a Dual-Luciferase™ Reporter Assay System kit (Promega, Madison, Wis., USA) according to the supplier's instructions. The protein content of the cell extracts was then measured with the Bio-Rad Protein Assay kit (Bio-Rad, Munich, Germany) as directed by the supplier.
The results are expressed as the induction factor (luminescent signal of treated cells divided by luminescent signal of untreated cells) after the different treatments.

Row | Compound | melting point | intrinsic antioxidant properties (delay of copper-induced LDL oxidation) [1] | shift of the lag phase latency (conjugated diene formation) [1] | induction factor (luminescent signal of treated cells divided by that of untreated cells) ([2]; 5 μM) | induction factor (luminescent signal of treated cells divided by that of untreated cells) ([2]; 15 μM) [fold] | induction factor (luminescent signal of treated cells divided by that of untreated cells) ([2]; 50 μM) [fold] | induction factor (luminescent signal of treated cells divided by that of untreated cells) ([2]; 100 μM) [fold] | PPARα activation (luciferase activity / luminescent signal), in words ([2]; cells transfected with pGal4-hPPARα plasmid)
1 | CCCCCCCCCCCCCCCC(=S)OC(CN)CN.Cl.Cl | 224 °C (dec.) |  |  |  |  |  |  | 
2 | 1,2-(dipalmitoyloxy)-3-tetradecylthioacetylaminopropane [Ex 4] |  | exhibit intrinsic antioxidant properties | 34.3% |  |  |  |  | 
3 | 1,2-(ditetradecylthioacetyloxy)-3-palmitoylaminopropane [Ex 6] |  | exhibit intrinsic antioxidant properties |  | 1.1 fold | 2.2 | 9.6 | 14.5 | induced an increase in the luminescent signal
4 | 1,2-(ditetradecylthioacetyloxy)-3-tetradecylthioacetylaminopropane [Ex 5] |  | exhibit intrinsic antioxidant properties |  | 1,2 fold | 2.5 | 7 | 10.5 | 
5 | CCCCCCCCCCCCCCSCC(=O)NCC(O)CO (stereo not shown) [Ex 2, 3-(tetradecylthioacetylamino)propane-1,2-diol] |  | exhibit intrinsic antioxidant properties | more than 13% | 1.5 fold | 7.7 | 19.8 | 19.2 | 
6 | CCCCCCCCCCCCCCCC(=O)NCC(O)CO (stereo not shown) [Ex 3, 3-(palmitoylamino)propane-1,2-diol] | 104 to 108 °C |  |  |  |  |  |  | 
7 | CCCCCCCCCCCCCCSCC(=O)NCC(CNC(=O)CSCCCCCCCCCCCCCC)OC(=O)CSCCCCCCCCCCCCCC [Ex 11, 1,3-ditetradecylthioacetylamino-2-(tetradecylthioacetyloxy)propane] |  | exhibit intrinsic antioxidant properties |  |  |  |  |  | 
